{"source": "patent EP0686425A1", "about": "“PROCESS FOR PRODUCING MICROCAPSULE OF HYDROPHOBIC DRUG” (SANSUI CO., LTD., priority 1993, dated 1995)", "key": {"[1]": {"system": "Japan white breeding rabbits", "conditions": "rabbit, in vivo", "method": "Six medically inspected Japan white breeding rabbits (conventional) were given a haircut along the spine and 6 spots of 2x3 cm each were closed patched with 0.5 g of Composition No.6 powder or 0.25 g of a powder of the compound represented by chemical formula 2 using bandage and gauze. Evaluation was conducted for the degree of erythema, scab formation and edema formation at a time interval of after 4 hours, 1 day, 2 days, 3 days, 4 days and 5 days.\nEvaluation standard (Draize method)\nFrom the above table, the following primary irritancy was obtained. Irritation index was obtained from Equation 1. Irritation index was obtained from the following table. Irritation index and safety classification are as follows. [formula]\nEvaluation was conducted according to the method employed in Example 6."}, "[2]": {"conditions": "cited from earlier work; for solubility in water: temperature not given"}, "[3]": {"experiment": "Elution test of microcapsule powder in Isopal G", "type": "physicochemical", "conditions": "unencapsulated compound of chemical formula 1, temperature not given", "method": "Elution test was conducted on microcapsule powder using Isopal G (aliphatic solvent EXXON Chemical company) which dissolves the compound of the chemical formula 1 in an optional rate. […] of the capsule powder was added to 10ml of Isopal G, and the mixture was maintained at room temperature or at 40 °C for 12 hours, and the amount of the compound of the chemical formula 1 eluted from the microcapsules was determined by gas chromatography. The rate of elution (active ingredient in Isopal G/added amount of active ingredient) was calculated."}}}
{"smiles": "CCCCCCCCn1sc(Cl)c(Cl)c1=O", "note": "[Compound of formula 4, 4,5-Dichloro-2-n-octyl-4-isothiazoline-3-one]", "values": [{"measurement": "Skin irritation, safety classification (irritation index)", "setting": "[1]", "value": "strong irritation"}, {"measurement": "water solubility (25 °C)", "setting": "[2]", "value": 6, "unit": "ppm"}]}
{"smiles": "S=C=Nc1ccc(Cl)c(Cl)c1", "note": "[Unencapsulated, 3,4-dichlorophenyl-isothiocyanate]", "values": [{"measurement": "rate of elution (active ingredient in Isopal G/added amount of active ingredient)", "setting": "[3]", "value": 100, "unit": "% elution"}]}
{"smiles": "N#CSCSc1nc2ccccc2s1", "note": "[Compound of the chemical formula 7, thiocyano methylthiobenzothiazol]", "values": [{"measurement": "Skin irritation, safety classification (irritation index)", "setting": "[1]", "value": "medium irritant"}, {"measurement": "solubility in water", "setting": "[2]", "value": 100, "unit": "ppm"}]}
{"smiles": "CNC(=O)Oc1cccc2c1OC(C)(C)C2", "note": "[compound of the chemical formula 6, 2,3-dihydro-2,2-dimethylbenzofuran-7-yl-methylcarbamate]", "values": [{"measurement": "solubility in water", "setting": "[2]", "value": 700, "unit": "ppm"}]}
{"smiles": "O=S1(=O)CC(Cl)(Cl)C(Cl)(Cl)C1", "note": "[compound of the chemical formula 2, Tetrachlorotetrahydrothiophene-1,1-dioxide]", "values": [{"measurement": "water solubility (25 °C)", "setting": "[2]", "value": "about 900 ppm"}]}
